Structures can show the parent of a compound that is named as a salt. Where two headings read alike, the source gives them in different places.
Tests used:
Type in all cases: cell-based, human
[1] = system: MYB; experiment: HiBiT protein abundance assay, MYB (K562 HiBiT knock-in); details: HiBiT knock-in K562 cells, 24 hours, top dose 10 μM
In short: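 Luminescence readout: Nano-Glo HiBiT lytic detection after 24 h compound exposure of K562 HiBiT knock-in cells, 10000 cells/well. Dosing 10-pt, 3-fold, top 10 μM final. % response vs untreated parental K562 and DMSO controls; 4PL fit, IC50 = concentration giving 50% protein abundance.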

[2] = system: HTT mRNA; experiment: RT-qPCR splicing assay, HTT mRNA canonical (CJ) and alternative (AJ) junction; details: Homo sapiens; for AC50: HTT alternative junction mRNA, read-out: HTT AJ (increase in AJ mRNA, AC50)
In short: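 Junction-specific RT-qPCR read-out: CJ and AJ isoform levels, housekeeper-normalized (GAPDH/GUSB/PPIA), ΔΔCt vs DMSO, converted to RQ then % response. Cells: A673 (DMEM/10% FBS, adhered 24 h) or K562 (IMDM/10% FBS). Compound 11-pt 3-fold, top 10 uM, 24 h, 37 °C.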

[3] = system: Target C; experiment: HiBiT protein abundance assay, Target C (K562 HiBiT knock-in); details: HiBiT knock-in K562 cells, 24 hours, top dose 10 μM
In short: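 K562 HiBiT knock-in cells (10000/well) were treated 24 h at 37° C with a 10-point 3-fold dilution series (top 10 μM final, ≤0.25% DMSO). HiBiT luminescence was read after lytic LgBiT detection. Percent response used unmodified K562 and DMSO-treated knock-in controls, and IC50 came from a four-parameter fit at 50% of untreated.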

[4] = HTT canonical junction mRNA, RT-qPCR, read-out: HTT CJ (decrease in CJ mRNA levels, IC50)
[5] = canonical junction qPCR panel, Table 4, read-out: HTT IC50 (decrease in CJ mRNA levels)

Structure (SMILES)	IC50 [1] [µM]	IC50 [2, 4] [µM]	IC50 [2, 5] [µM]	IC50 [3] [µM]	AC50 ([2]; RT-qPCR) [µM]
Cc1c(O)c(-c2ccc3cc(N4CCNCC4)cc(F)c3n2)cc2cn(C)nc12 [Compound 515, 5-[8-fluoro-6-(piperazin-1-yl)quinolin-2-yl]-2,7-dimethylindazol-6-ol]	< 0.1	< 0.1	< 0.1	< 0.1	< 0.1
Cn1cc2cc(-c3ccc4cc(N5CCNCC5)cc(F)c4n3)cc(F)c2n1 [Compound 516, 8-fluoro-2-(7-fluoro-2-methylindazol-5-yl)-6-(piperazin-1-yl)quinoline]	< 0.1	0.1 to 1	0.1 to 1	0.1 to 1	0.1 to 1
Cc1cn2cc(-c3ccc4cc(N5CCNCC5)cc(F)c4n3)cc(F)c2n1 [Compound 517, 8-fluoro-2-{8-fluoro-2-methylimidazo[1,2-a]pyridin-6-yl}-6-(piperazin-1-yl)quinoline]	< 0.1	0.1 to 1	0.1 to 1	0.1 to 1	0.1 to 1
Cn1cc2cc(-c3nc(C4CC4)c4cc(N5CCNCC5)ccc4n3)c(O)c(F)c2n1 [Compound 518, 5-[4-cyclopropyl-6-(piperazin-1-yl)quinazolin-2-yl]-7-fluoro-2-methylindazol-6-ol; trifluoroacetic acid]	< 0.1	1 to 10	1 to 10	1 to 10	1 to 10
Cc1c(O)c(-c2nc(-c3cncs3)c3cc(N4CCNCC4)ccc3n2)cc2cn(C)nc12 [Compound 519, 2,7-dimethyl-5-[6-(piperazin-1-yl)-4-(1,3-thiazol-5-yl)quinazolin-2-yl]indazol-6-ol]	0.1 to 1	> 10	> 10	1 to 10	> 10
Cc1c(O)c(-c2ncc3cc(N4CCNCC4)ccc3n2)cc2cn(C)nc12 [Compound 520, 2,7-dimethyl-5-[6-(piperazin-1-yl)quinazolin-2-yl]indazol-6-ol]	< 0.1	0.1 to 1	0.1 to 1	0.1 to 1	0.1 to 1
Cc1c(O)c(-c2nc(-c3nnc[nH]3)c3cc(N4CCNCC4)ccc3n2)cc2cn(C)nc12 [Compound 522, 2,7-dimethyl-5-[6-(piperazin-1-yl)-4-(4H-1,2,4-triazol-3-yl)quinazolin-2-yl]indazol-6-ol; bis(trifluoroacetic acid)]	0.1 to 1	1 to 10	1 to 10	1 to 10	> 10
Cc1c(O)c(-c2nc(C(N)=O)c3cc(N4CCNCC4)ccc3n2)cc2cn(C)nc12 [Compound 523, 2-(6-hydroxy-2,7-dimethylindazol-5-yl)-6-(piperazin-1-yl) quinazoline-4-carboxamide]	< 0.1	0.1 to 1	0.1 to 1	1 to 10	0.1 to 1
Cc1c(O)c(-c2nc(C(=O)O)c3cc(N4CCNCC4)ccc3n2)cc2cn(C)nc12 [Compound 524, 2-(6-hydroxy-2,7-dimethylindazol-5-yl)-6-(piperazin-1-yl) quinazoline-4-carboxylic acid]	> 10	> 10	> 10	> 10	> 10
CNC(=O)c1nc(-c2cc3cn(C)nc3c(F)c2O)nc2ccc(N3CCC(N(C)C)CC3)cc12 [Compound 528, 6-[4-(dimethylamino)piperidin-1-yl]-2-(7-fluoro-6-hydroxy-2-methylindazol-5-yl)-N-methylquinazoline-4-carboxamide]	< 0.1	0.1 to 1	0.1 to 1	0.1 to 1	1 to 10
CNC(=O)c1nc(-c2cc3cn(C)nc3cc2O)nc2ccc(N3CCN[C@@H](C)C3)cc12 [Compound 530, 2-(6-hydroxy-2-methylindazol-5-yl)-N-methyl-6-[(3S)-3-methylpiperazin-1-yl]quinazoline-4-carboxamide]	< 0.1	1 to 10	1 to 10	0.1 to 1	1 to 10
CNC(=O)c1nc(-c2cc3cn(C)nc3c(C)c2O)nc2ccc(N3CCNCC3)nc12 [Compound 533, 2-(6-hydroxy-2,7-dimethylindazol-5-yl)-N-methyl-6-(piperazin-1-yl)pyrido[3,2-d]pyrimidine-4-carboxamide]	0.1 to 1	1 to 10	1 to 10	1 to 10	1 to 10
Cc1c(O)c(-c2nc(-c3c[nH]nn3)c3cc(N4CCNCC4)ccc3n2)cc2cn(C)nc12 [Compound 538, 2,7-dimethyl-5-[6-(piperazin-1-yl)-4-(1H-1,2,3-triazol-4-yl)quinazolin-2-yl]indazol-6-ol hydrochloride]	1 to 10	1 to 10	1 to 10	1 to 10	1 to 10

Now from value to compound, other results behind:

IC50 [1] [µM]	IC50 [2, 4] [µM]	IC50 [2, 5] [µM]	IC50 [3] [µM]	Structure (SMILES)	AC50 ([2]; RT-qPCR) [µM]
< 0.1	0.1 to 1	0.1 to 1	0.1 to 1	Cc1c(O)c(-c2ncc3cc(N4C[C@@H](C)N[C@@H](C)C4)ccc3n2)cc2cn(C)nc12 [Compound 525, 5-{6-[(3R,5S)-3,5-dimethylpiperazin-1-yl]quinazolin-2-yl}-2,7-dimethylindazol-6-ol]	0.1 to 1
0.1 to 1	0.1 to 1	0.1 to 1	0.1 to 1	Cc1c(O)c(-c2ncc3nc(N4C[C@@H](C)N[C@@H](C)C4)ccc3n2)cc2cn(C)nc12 [Compound 526, 5-{6-[(3R,5S)-3,5-dimethylpiperazin-1-yl]pyrido[3,2-d]pyrimidin-2-yl}-2,7-dimethylindazol-6-ol]	1 to 10
< 0.1	< 0.1	< 0.1	0.1 to 1	CNC(=O)c1nc(-c2cc3cn(C)nc3c(F)c2O)nc2ccc(N3C[C@@H](C)N[C@@H](C)C3)cc12 [Compound 527, 6-[(3R,5S)-3,5-dimethylpiperazin-1-yl]-2-(7-fluoro-6-hydroxy-2-methylindazol-5-yl)-N-methylquinazoline-4-carboxamide]	0.1 to 1
< 0.1	0.1 to 1	0.1 to 1	0.1 to 1	CNC(=O)c1nc(-c2cc3cn(C)nc3c(F)c2O)nc2ccc(N3CCN[C@@H](C)C3)cc12 [Compound 529, 2-(7-fluoro-6-hydroxy-2-methylindazol-5-yl)-N-methyl-6-[(3S)-3-methylpiperazin-1-yl]quinazoline-4-carboxamide]	0.1 to 1
< 0.1	1 to 10	1 to 10	1 to 10	CNC(=O)c1nc(-c2cc3cn(C)nc3cc2O)nc2ccc(N3C[C@@H](C)N[C@@H](C)C3)cc12 [Compound 531, 6-[(3R,5S)-3,5-dimethylpiperazin-1-yl]-2-(6-hydroxy-2-methylindazol-5-yl)-N-methylquinazoline-4-carboxamide]	> 10
< 0.1	0.1 to 1	0.1 to 1	0.1 to 1	CNC(=O)c1nc(-c2cc3cn(C)nc3c(C)c2O)nc2ccc(N3CCNC4(CC4)C3)cc12 [Compound 532, 6-{4,7-diazaspiro[2.5]octan-7-yl}-2-(6-hydroxy-2,7-dimethylindazol-5-yl)-N-methylquinazoline-4-carboxamide]	0.1 to 1
0.1 to 1	> 10	> 10	1 to 10	CNC(=O)c1nc(-c2cc3cn(C)nc3c(C)c2O)nc2ccc(N3C[C@@H](C)N[C@@H](C)C3)nc12 [Compound 534, 6-[(3R,5S)-3,5-dimethylpiperazin-1-yl]-2-(6-hydroxy-2,7-dimethylindazol-5-yl)-N-methylpyrido[3,2-d]pyrimidine-4-carboxamide]	> 10
< 0.1	< 0.1	< 0.1	0.1 to 1	CCNC(=O)c1nc(-c2cc3cn(C)nc3c(C)c2O)nc2ccc(N3C[C@@H](C)N[C@@H](C)C3)cc12 [Compound 535, 6-[(3R,5S)-3,5-dimethylpiperazin-1-yl]-N-ethyl-2-(6-hydroxy-2,7-dimethylindazol-5-yl)quinazoline-4-carboxamide]	0.1 to 1
< 0.1	< 0.1	< 0.1	< 0.1	CNC(=O)c1nc(-c2cc3cn(C)nc3c(C)c2O)nc2ccc(N3CC[C@@H](NC)C3)cc12 [Compound 536, 2-(6-hydroxy-2,7-dimethylindazol-5-yl)-N-methyl-6-[(3R)-3-(methylamino)pyrrolidin-1-yl]quinazoline-4-carboxamide]	< 0.1
< 0.1	< 0.1	< 0.1	< 0.1	CNC(=O)c1nc(-c2cc3cn(C)nc3c(C)c2O)nc2ccc(N3CC[C@H](NC)C3)cc12 [Compound 537, 2-(6-hydroxy-2,7-dimethylindazol-5-yl)-N-methyl-6-[(3S)-3-(methylamino)pyrrolidin-1-yl]quinazoline-4-carboxamide]	0.1 to 1

— US20250092065A1, “2-(INDAZOL-5-YL)-6-(PIPERIDIN-4-YL)-1,7-NAPHTHYRIDINE DERIVATIVES AND RELATED COMPOUNDS AS MODULATORS FOR SPLICING NUCLEIC ACIDS AND FOR THE TREATMENT OF PROLIFERATIVE DISEASES” (REMIX THERAPEUTICS INC., priority 2022, published 2025)
